This note sets out measurements from patent publication US9212134B2, “Inhibitors of viral entry into mammalian cells” (priority 2010, dated 2015).

In series [1] the test system is HIV/HA (H5) pseudotype virus. As to the kind of experiment: organism not typed. It is filed as cell-based, influenza A virus H5N1.
In series [2] the test system is HIV/VSV-G pseudotype virus. As to the kind of experiment: organism not typed. In kind it is cell-based, vesicular stomatitis virus.
The test system of series [3] is HIV/HA (H7) pseudotype virus. It is filed as cell-based, influenza virus (H7).
For the next series, the system named is HIV/MLV pseudotype virus. In kind it is cell-based.
In a further series the test system is Influenza H1N1 (PR8). In kind it is cell-based, influenza virus H1N1 (PR8).
For series [4], the system named is cell viability (endogenous cellular GAPDH). As to the kind of experiment: Cell viability, AlphaScreen SureFire GAPDH assay. Particulars: cytotoxicity. Background: Alpha assays give light when donor and acceptor beads are brought close together.
The next series has as its system HIV/HA pseudotype virus. In kind it is cell-based, influenza A virus H5N1.
The subject of series [5] is Influenza A virus [A/WS/33]. Description: Plaque assay of influenza A virus A/WS/33 on MDCK cells. As to conditions: 25-200 nM (FIG. 7). It is filed as cell-based, influenza A virus A/WS/33 (H1N1).

“Also recorded” adds a separate entry of the source. Some results are limits rather than exact numbers.

With `O=C(CN(c1ccc(Cl)cc1Cl)S(=O)(=O)c1ccccc1)Nc1ccccc1F` [Compound 2], the IC90 is 3.9 µM in series [1], greater than 100 µM in series [2], greater than 100 µM in series [3] and 99 µM in the series on HIV/MLV pseudotype virus. This molecule also yielded an IC50 with Influenza H1N1 (PR8) of 5.2 µM.

Regarding `COc1cccc(NC(=O)CN(c2ccc(Cl)cc2C)S(=O)(=O)c2ccc(C)cc2)c1` [Compound 15], the IC50 in series [1] is greater than 100 µM. Moreover, it took 43.4 µM to reach half-maximal cytotoxicity in series [4] (CC50).

In turn, `COc1ccc(NC(=O)CN(c2ccc(Cl)cc2)S(=O)(=O)c2ccc(C)cc2)cc1` [Compound 16] gave a half-maximal inhibitory concentration (IC50) in series [1] greater than 100 µM. The molecule further displayed a CC50 in series [4] greater than 100 µM.

As to `Cc1cccc(C)c1NC(=O)CN(c1cccc(Cl)c1)S(=O)(=O)c1ccccc1` [Compound 17], the IC50 in series [1] is greater than 100 µM. In series [4], the 50% cytotoxic concentration (CC50) is greater than 100 µM.

Turning to `COc1ccc(NC(=O)CN(c2cccc(Cl)c2)S(=O)(=O)c2ccccc2)c(OC)c1` [Compound 18], in series [1], the IC50 is greater than 100 µM. Moreover, the cytotoxic concentration (CC50) in series [4] is greater than 100 µM.

As for `O=C(CN(c1cccc(Cl)c1)S(=O)(=O)c1ccccc1)Nc1ccccc1Cl` [Compound 19], the IC50 in series [1] was greater than 100 µM. Further, the midpoint of cytotoxicity in series [4], the CC50, lay at 90.3 µM.

On to `Cc1cccc(C)c1NC(=O)CN(c1ccccc1Cl)S(=O)(=O)c1ccccc1` [Compound 20], for which the IC50 in series [1] was greater than 100 µM. This molecule displayed a CC50 in series [4] greater than 100 µM.

With `COc1ccc(OC)c(NC(=O)CN(c2ccccc2Cl)S(=O)(=O)c2ccc(C)cc2)c1` [Compound 21], the half-maximal inhibitory concentration (IC50) in series [1] was greater than 100 µM. The molecule also showed a CC50 in series [4] greater than 100 µM.

`Cc1ccc(S(=O)(=O)N(CC(=O)Nc2cccc(C)c2)c2ccccc2Cl)cc1` [Compound 22]: the concentration for half-maximal inhibition (IC50) in series [1] was greater than 100 µM. For the same molecule, the 50% cytotoxic concentration (CC50) in series [4] was greater than 100 µM.

`COc1ccc(NC(=O)CN(c2ccccc2Cl)S(=O)(=O)c2ccc(C)cc2)c(OC)c1` [Compound 23] came in with an IC50 in series [1] greater than 100 µM. The CC50 in series [4] was greater than 100 µM.

Consider `Cl.N` [NH4Cl, ammonium chloride], for which, in the series with HIV/HA pseudotype virus, the “reduction of HIV/HA virus infection” value is “significantly reduced the virus infection”.

As for `CO/C1=C\C(C)=C\[C@@H](C)[C@@H](O)[C@@H](C)C/C(C)=C/C=C/[C@H](OC)[C@@H]([C@@H](C)[C@@H](O)[C@H](C)[C@@]2(O)C[C@@H](O)[C@H](C)[C@@H](C(C)C)O2)OC1=O` [bafilomycin A], the “inhibition of infectivity of HIV/HA pseudotype virus” value with HIV/HA pseudotype virus is listed as “efficiently inhibited the infectivity; also recorded: prevented HIV/HA infection”. Also, in series [5], the “inhibition of infectivity of influenza virus infection” value is given as “efficiently inhibited the infectivity”.

What is called IC90 is the point of the concentration-response curve where the effect stands at 90%. A high value points to weaker potency. Usually IC50 stands for the point on the concentration scale where inhibition reaches its midpoint. Read a low IC50 as higher potency. One may read the CC50 as the concentration that lowers cell viability or growth by half. Read a low CC50 as harm at low concentration.
